Reference: PubChem BioAssay (NCI)
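Briefly, cells in 96-well plates were exposed to five compound concentrations for 48 h, and endpoints were estimated by linear interpolation. TGI marks complete inhibition of growth.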 Where a SMILES comes first, the peptide text is derived from it. [ ]: non-standard residue; d: D form. pGlu = O=C1CC[CH](C(=O)O)N1

Experiments:
Assay in all cases: NCI tumour cell line growth inhibition, 48 h
[1] = system: OVCAR-3 ovarian
[2] = system: NCI/ADR-RES ovarian
[3] = system: HCC-2998 colon
[4] = system: HOP-92 NSCLC
[5] = system: A549 NSCLC
[6] = system: SK-MEL-2 melanoma
[7] = system: SF-539 CNS
[8] = system: 786-0 renal
[9] = system: RXF 393 renal
[10] = system: K-562 leukemia

Structure (SMILES) | TGI [1] | TGI [2] | TGI [3] | TGI [4] | TGI [5] | TGI [6] | TGI [7] | TGI [8] | TGI [9] | TGI [10]
CC1(C)O[C@H]2OC(CO)C(OS(C)(=O)=O)[C@H]2O1 (some centres undefined) | > 100 µM | > 100 µM | > 100 µM | > 100 µM | > 100 µM | > 100 µM | > 100 µM | > 100 µM |  | 
O=C(Cc1ccccc1)N=Nc1c(O)[nH]c2ccccc12 | > 100 µM | > 100 µM | > 100 µM |  | > 100 µM | > 100 µM | > 100 µM | > 100 µM | > 100 µM | > 100 µM
O=C1C2=C(CCCCC2)C2CCCCC12O (centres undefined) | > 100 µM |  | > 100 µM | > 100 µM | > 100 µM | > 100 µM | > 100 µM | > 100 µM | > 100 µM | > 100 µM
CC(=O)Nc1ccc(-c2nnc(SCC(=O)Nc3cccc([N+](=O)[O-])c3)o2)cc1 | 40.5 µM |  |  | 35.3 µM | 46.3 µM | 37.2 µM | 31.4 µM | 40.6 µM | 25.7 µM | 57.5 µM
CCCCCCCCCCCCCCCCCCOc1ccc(/C=C/C2=[N+](CCCl)CCO2)cc1 | > 100 µM | > 100 µM |  | > 100 µM | > 100 µM | > 100 µM | > 100 µM | > 100 µM |  | > 100 µM
C[C@H](CN1CC(=O)NC(=O)C1)N1CC(=O)NC(=O)C1 | > 100 µM | > 100 µM | > 100 µM | > 100 µM | > 100 µM |  | > 100 µM |  | > 100 µM | > 100 µM
O=C(Cn1c(=O)oc2ccc(C(=O)c3ccccc3Cl)cc21)c1ccc([N+](=O)[O-])cc1 | 59.4 µM | > 100 µM | 34.6 µM | > 100 µM | > 100 µM | 41.6 µM | 65.9 µM | > 100 µM |  | 83 µM
NC(=O)CCC(NC(=O)c1cccc2c(=O)c3ccccc3[nH]c12)C(=O)O (centres undefined) | > 100 µM | > 100 µM |  | > 100 µM | > 100 µM | > 100 µM |  | > 100 µM |  | > 100 µM
COc1nc2ccc(CNc3ccc(C(=O)O)cc3)cc2nc1OC | > 10 µM | > 10 µM | > 10 µM |  | > 10 µM | > 10 µM | > 10 µM | > 10 µM | > 10 µM | > 10 µM
CC(C)=CCCC1(Sc2ccccc2)C(=O)OCC1C=C(C)C (centres undefined) | 42.8 µM | > 100 µM | > 100 µM |  | 78.1 µM | 55.8 µM | 47.9 µM | 73.7 µM | 45.1 µM | 
O=C1OC(c2ccc(Cl)cc2)(c2ccc(Cl)cc2)c2c1ccc1ccccc21 | > 100 µM |  | > 100 µM |  | > 100 µM | > 100 µM |  |  | > 100 µM | > 100 µM
N#CCSc1c(-c2ccccc2)c(=O)n(-c2ccccc2)c(=S)n1-c1ccccc1 | > 100 µM | > 100 µM |  | > 100 µM | > 100 µM | > 100 µM |  | > 100 µM |  | > 100 µM
CCCCCCCC(=O)OCC(C[As](=O)(O)O)OC(=O)CCCCCCC (centres undefined) |  |  | 31.7 µM | 25.4 µM | 53.3 µM |  | 27.1 µM | 30.9 µM | 18.2 µM | 81.9 µM
Nc1nn(CC(O)CO)c(=O)s1 (centres undefined) | > 100 µM |  | > 100 µM |  | > 100 µM | > 100 µM | > 100 µM |  | > 100 µM | > 100 µM
Cc1c(O)c(=O)ccn1CCc1c[nH]c2ccccc12 |  | 35.6 µM |  | 46.5 µM | > 100 µM |  | 49.6 µM | 9.06 µM |  | 66.7 µM
COC(=O)c1c(O)ccc2c1c1c(n2Cc2ccccc2OC)C(=O)c2ccccc2C1 | > 100 µM | > 100 µM |  |  | > 100 µM | > 100 µM | > 100 µM | > 100 µM | 88.1 µM | > 100 µM
COc1cc(/C=C2\N=C(C)N(n3c(-c4ccccc4)nc4ccccc4c3=O)C2=O)cc(OC)c1OC |  |  | > 100 µM |  | > 100 µM |  | > 100 µM | > 100 µM |  | > 100 µM
COc1c(-c2cccs2)oc2c(CC(=O)O)cccc2c1=O | > 100 µM |  | > 100 µM |  | > 100 µM | > 100 µM | > 100 µM | > 100 µM | > 100 µM | > 100 µM
CC(NC(=O)C(Cc1cnc[nH]1)NC(=O)C1CCC(=O)N1)C(N)=O (stereo not drawn) ([pGlu]-His-Ala-NH2; configuration not given here) | > 100 µM |  | > 100 µM | > 100 µM | > 100 µM |  |  | > 100 µM | > 100 µM | > 100 µM
